# Test system: NZW rabbits, normal or infected with HCMV in their eyes
# Assay: Effect of cyclocreatine continuous intravenous infusion on glucose levels in rabbits
# Type: in vivo, rabbit
# Settings: for average glucose levels: 10 and 5 mg/ml
# Protocol: The creatine compound cyclocreatine, was given as a continuous intravenous infusion (IV) to normal rabbits or rabbits infected with the human cytomegalovirus (HCMV) in their eyes (Rabbit Chorioretinal model). Glucose levels were recorded over a period of seven days. This compound was tested in infected as well as in normal animals due to the fact that these compounds were also being evaluated as anti viral agents, a biological activity that were reported in the U.S. Pat. No. 5,321,030. As will become clear in the data presented here the eye infection had no effect on the levels of glucose recorded. The schedule and dose selected in these experiments was based on prior experience working with this class of compounds as antiviral agents.
# A total of 11 NZW rabbits weighing 1.75-2.0 Kg were used in the experiments. All animals were infused with various doses of cyclocreatine over a period of 1-7 days in a continuous infusion mode. Continuous infusions were achieved by surgical implantation of an indwelling catheter implant into the jugular vein by standard surgical procedures. The catheter was threaded through a steel sleeve and swivel apparatus attached to the back of the animal's neck which was anchored to a specially fitted vest. A Harvard Apparatus 2200 unifusion pump maintained drug delivery at a constant rate through out the experiment. This arrangement allowed the animal unimpaired movement within its cage. Animals received a bolus injection of antibiotics immediately after surgery and daily if needed. After animals recovered from the anesthesia, some animals were inoculated by intravitreal injection of AD169 HCMV (10^5 pfu). The remaining animals were left uninfected. Both infected and uninfected animals received a continuous infusion of cyclocreatine or saline for up to seven days. Concentrations of cyclocreatine were 5, 10, or 15 mg cyclocreatine/ml saline and infusion rates and volumes were adjusted to achieve the desired dose of 375-1125 mg/Kg/day. These concentrations were based on amounts required to achieve other biological activities such as antiviral or anticancer. […] The rest of the animals received a similar volume of sterile saline. […]
# [1] = uninfected, 15 mg/ml (1125 mg/Kg/day), day five
compound,measurement,setting,value
NC1=NCCN1CC(=O)O [cyclocreatine],Glucose Levels,"5 mg/ml, HCMV infected, animal 1, day 0",177 mg/dL
same,Glucose Levels,"5 mg/ml, HCMV infected, animal 1, day 1",104 mg/dL
same,Glucose Levels,"5 mg/ml, HCMV infected, animal 1, day 3",70 mg/dL
same,Glucose Levels,"5 mg/ml, HCMV infected, animal 1, day 5",29 mg/dL
same,Glucose Levels,"5 mg/ml, HCMV infected, animal 2, day 0",177 mg/dL
same,Glucose Levels,"5 mg/ml, HCMV infected, animal 2, day 1",94 mg/dL
same,Glucose Levels,"5 mg/ml, HCMV infected, animal 2, day 3",49 mg/dL
same,Glucose Levels,"5 mg/ml, HCMV infected, animal 2, day 5",41 mg/dL
same,Glucose Levels,"5 mg/ml, HCMV infected, animal 3, day 0",177 mg/dL
same,Glucose Levels,"5 mg/ml, HCMV infected, animal 3, day 1",93 mg/dL
same,Glucose Levels,"5 mg/ml, HCMV infected, animal 3, day 3",47 mg/dL
same,Glucose Levels,"5 mg/ml, HCMV infected, animal 3, day 5",33 mg/dL
same,Glucose Levels,"10 mg/ml, HCMV infected, animal 1, day 0",169 mg/dL
same,Glucose Levels,"10 mg/ml, HCMV infected, animal 1, day 1",118 mg/dL
same,Glucose Levels,"10 mg/ml, HCMV infected, animal 1, day 3",103 mg/dL
same,Glucose Levels,"10 mg/ml, HCMV infected, animal 1, day 4",59 mg/dL
same,Glucose Levels,"10 mg/ml, HCMV infected, animal 1, day 5",45 mg/dL
same,Glucose Levels,"10 mg/ml, HCMV infected, animal 2, day 0",194 mg/dL
same,Glucose Levels,"10 mg/ml, HCMV infected, animal 2, day 1",89 mg/dL
same,Glucose Levels,"10 mg/ml, HCMV infected, animal 2, day 3",98 mg/dL
same,Glucose Levels,"10 mg/ml, HCMV infected, animal 2, day 4",69 mg/dL
same,Glucose Levels,"10 mg/ml, HCMV infected, animal 2, day 5",62 mg/dL
same,Glucose Levels,"10 mg/ml, HCMV infected, animal 3, day 0",201 mg/dL
same,Glucose Levels,"10 mg/ml, HCMV infected, animal 3, day 1",76 mg/dL
same,Glucose Levels,"10 mg/ml, HCMV infected, animal 3, day 3",74 mg/dL
same,Glucose Levels,"10 mg/ml, HCMV infected, animal 3, day 4",87 mg/dL
same,Glucose Levels,"10 mg/ml, HCMV infected, animal 3, day 5",55 mg/dL
same,Glucose Levels,"10 mg/ml, HCMV infected, animal 4, day 0",184 mg/dL
same,Glucose Levels,"10 mg/ml, HCMV infected, animal 4, day 1",81 mg/dL
same,Glucose Levels,"10 mg/ml, HCMV infected, animal 4, day 3",85 mg/dL
same,Glucose Levels,"10 mg/ml, HCMV infected, animal 4, day 4",65 mg/dL
same,Glucose Levels,"10 mg/ml, HCMV infected, animal 4, day 5",53 mg/dL
same,Glucose Levels,"15 mg/ml, not infected, animal 1, day 0",177 mg/dL
same,Glucose Levels,"15 mg/ml, not infected, animal 1, day 3",48 mg/dL
same,Glucose Levels,"15 mg/ml, not infected, animal 2, day 0",177 mg/dL
same,Glucose Levels,"15 mg/ml, not infected, animal 2, day 3",59 mg/dL
same,Glucose Levels,"15 mg/ml, not infected, animal 2, day 5",7 mg/dL
same,Glucose Levels,"15 mg/ml, not infected, animal 3, day 0",177 mg/dL
same,Glucose Levels,"15 mg/ml, not infected, animal 3, day 5",22 mg/dL
same,Glucose Levels,"15 mg/ml, not infected, animal 3, day 6",22 mg/dL
same,Glucose Levels,"15 mg/ml, not infected, animal 3, day 7, (10 ml/rabbit 20% Dextrose)",73 mg/dL
same,Glucose Levels,"ave 5 mg/ml, HCMV infected, day 0",177 mg/dL
same,Glucose Levels,"ave 5 mg/ml, HCMV infected, day 1",97 mg/dL
same,Glucose Levels,"ave 5 mg/ml, HCMV infected, day 3",55 mg/dL
same,Glucose Levels,"ave 5 mg/ml, HCMV infected, day 5",34 mg/dL
same,Glucose Levels,"ave 10 mg/ml, HCMV infected, day 0",187 mg/dL
same,Glucose Levels,"ave 10 mg/ml, HCMV infected, day 1",91 mg/dL
same,Glucose Levels,"ave 10 mg/ml, HCMV infected, day 3",90 mg/dL
same,Glucose Levels,"ave 10 mg/ml, HCMV infected, day 4",70 mg/dL
same,Glucose Levels,"ave 10 mg/ml, HCMV infected, day 5",54 mg/dL
same,Glucose Levels,"ave 15 mg/ml, not infected, day 0",177 mg/dL
same,Glucose Levels,"ave 15 mg/ml, not infected, day 3",54 mg/dL
same,Glucose Levels,"ave 15 mg/ml, not infected, day 5",15 mg/dL
same,Glucose Levels,"ave 15 mg/ml, not infected, day 6",22 mg/dL
same,Glucose Levels,"ave 15 mg/ml, not infected, day 7, (10 ml/rabbit 20% Dextrose)",73 mg/dL
same,blood glucose levels,"infected, 10 mg/ml (750 mg/Kg/day) and 5 mg/ml (375 mg/Kg/day)",significant drop in blood glucose levels
same,average glucose levels,"infected, day five",30 to 50 mg/dL
same,average glucose levels,"infected, day one",~90 mg/dL
same,Glucose Levels,"uninfected, 15 mg/ml (1125 mg/Kg/day)",significant drop in their glucose levels
same,Glucose Levels,[1],7 to 22 mg/dL
same,condition of the animals,[1],very lethargic
same,Glucose Levels,"uninfected, 15 mg/ml (1125 mg/Kg/day), day three",48 to 59 mg/dL
same,level of glucose after 10 mls of a 20% solution of dextrose,"uninfected, 15 mg/ml, day 7",70 mg/dL

# From patent US20050256134A1, “Use of creatine analogues and creatine kinase modulators for the prevention and treatment of glucose metabolic disorders” (AVICENA GROUP, INC., priority 1995, published 2005)
